This note sets out measurements from ChEMBL document CHEMBL2396517, “Design, synthesis and biological evaluation of novel aminothiazoles as antiviral compounds acting against human rhinovirus” (Bioorg Med Chem Lett, 2013).

As a reminder, the logD is the decadic logarithm of the distribution of all forms, ionised or not, between an organic phase and buffer at a given pH. A higher logD goes with higher lipophilicity. The half-life is the time needed for the level to fall by half in the phase considered. Lower therefore signals rapid decline. One may read the bioavailability as the share of a dose that reaches the circulation, judged against a reference dose that is usually intravenous. A lower bioavailability goes with little systemic uptake. As usually defined, the Cmax is the peak of the concentration-time curve. As usually defined, the AUC is concentration integrated over time.

Each structure is given as a SMILES string.

The nature of one data set: physchem. As to conditions: buffer, pH 7.4.
Data set [1] can be described thus: Permeability across apical to basolateral side in human Caco2 cells. In kind it is ADME, cell-based. As to conditions: Caco-2, read-out: permeability.
Data set [2] is described as follows: Half life in rat at 5 mg/kg, po and 2 mg/kg, iv. In kind it is ADME, organism-based. As to conditions: in vivo.
Data set [3] can be described thus: Total clearance in rat at 5 mg/kg, po and 2 mg/kg, iv. In kind it is ADME, organism-based. The settings on record: in vivo.
A short description of data set [4]: (§1) Oral bioavailability in rat at 5 mg/kg. In kind it is ADME, organism-based. As to conditions: in vivo.
The nature of data set [5]: Cmax in rat at 5 mg/kg, po and 2 mg/kg, iv. In kind it is ADME, organism-based. The settings on record: in vivo.
Data set [6] is described as follows: AUC in rat at 5 mg/kg, po and 2 mg/kg, iv. As to conditions: plasma. In kind it is ADME, organism-based.
Data set [7] is described as follows: AUC in CD1 mouse at 5 mg/kg. In kind it is ADME, organism-based. Further details: dose 5 mg/kg. As to conditions: plasma.
Data set [8] in a line: Cmax in CD1 mouse at 5 mg/kg. In kind it is ADME, organism-based. Further details: dose 5 mg/kg. The settings on record: in vivo.
A short description of data set [9]: Cmax in CD1 mouse at 250 mg/kg. In kind it is ADME, organism-based. Further details: dose 250 mg/kg. The settings on record: in vivo.
Data set [10] in a line: AUC in CD1 mouse at 250 mg/kg. As to conditions: plasma. Further details: dose 250 mg/kg. In kind it is ADME, organism-based.
Data set [11] is described as follows: Cmax in CD1 mouse at 50 mg/kg. In kind it is ADME, organism-based. Further details: dose 50 mg/kg. As to conditions: in vivo.
Data set [12] can be described thus: Total clearance in CD1 mouse at 2 mg/kg, iv. Further details: dose 2 mg/kg, route intravenous. In kind it is ADME, organism-based. The settings on record: in vivo.
Data set [13] can be described thus: AUC in CD1 mouse at 50 mg/kg. In kind it is ADME, organism-based. Further details: dose 50 mg/kg. The settings on record: plasma.
The test system of the next data set is Rattus norvegicus. The data set is described as §1. In kind it is ADME, organism-based. The settings on record: in vivo.

Consider `Cc1nc(NC(=O)CN2C(=O)OC[C@H]2C(C)C)sc1-c1ccc(N)cc1`, for which, in “physchem”, the logD came out at 2.5. Besides, the Papp A→B in [1] stood at 19 ×10⁻⁶ cm/s.
For `Cc1nc(NC(=O)C2(C)CCCCC2)sc1-c1ccc(N)nc1` the same measures were 3.8 and 20 ×10⁻⁶ cm/s.
As for `Cc1nc(NC(=O)Cc2nc(-c3ccccc3)c(C)o2)sc1-c1ccc(N)nc1`, the logD in “physchem” stood at 4. In addition, the Papp A→B in data set [1] turned out to be 26 ×10⁻⁶ cm/s.
Turning to `Cc1nc(NC(=O)CN(Cc2ccccc2)C(=O)c2ccncc2)sc1-c1ccc(N)nc1`, in the data set “physchem”, the log distribution coefficient (logD) came to 2.8. For the same molecule, the Papp A→B in [1] was 2.1 ×10⁻⁶ cm/s.
`Cc1nc(NC(=O)[C@H]2CC[C@@H](C(F)(F)F)CC2)sc1-c1ccc(N)nc1` gave a logD in the data set “physchem” of 3.8. In addition, in data set [1], the Papp A→B is 22 ×10⁻⁶ cm/s.
In “physchem”, `CC(=O)N1[C@@H](c2ccccc2)CC[C@H]1C(=O)Nc1ncc(-c2ccc(N)cc2)s1` had a logD of 3.2. For the same molecule, the Papp A→B in data set [1] amounted to 21 ×10⁻⁶ cm/s.
In data set [2], `CO[C@H]1CC[C@@H](C(=O)Nc2nc(C)c(-c3ccc(N)nc3)s2)CC1` had a half-life of 0.38 h. The same molecule gave a logD in “physchem” of 2.8. Further, in data set [3], the clearance stood at 70 mL/min/kg. The same molecule showed a bioavailability in [4] of 77%. Besides, the concentration in [5] peaked (Cmax) at 1.5 µM. This molecule yielded an AUC in data set [6] of 2.65 µM·h. In data set [1], the Papp A→B turned out to be 18 ×10⁻⁶ cm/s.
In the case of `Cc1nc(NC(=O)[C@@H](C)CC(F)(F)F)sc1-c1ccc(N)nc1`, the results for the AUC in data set [7], in [10] and in data set [13] were 4 µM·h, 12 µM·h and 38 µM·h, respectively. In “physchem”, this molecule showed a logD of 3.2. The Cmax in data set [8] stood at 2.2 µM; in [9], 26 µM; in [11], 20 µM. Further, in data set [12], the clearance worked out at 71 mL/min/kg. Also, in [1], the Papp A→B was 42 ×10⁻⁶ cm/s.
On to `Cc1ccc(C(=O)N(CC(=O)Nc2ncc(-c3ccc(N)cc3)s2)Cc2ccccc2)cn1`, for which, in data set [1], the Papp A→B is 17 ×10⁻⁶ cm/s.
Turning to `Cc1nc(NC(=O)C(C)(C)CC(F)(F)F)sc1-c1ccc(N)nc1`, the AUC was found to be 208 µM·h in data set [7] and 514 µM·h in data set [13]. The molecule further came in with a log distribution coefficient (logD) in the data set “physchem” of 3.4. For the same molecule, the figures for the highest concentration (Cmax) in [8], in [9] and in [11] were 0.5 µM, 59 µM and 12 µM, respectively. This molecule returned a clearance in [12] of 58 mL/min/kg. Besides, the Papp A→B in data set [1] amounted to 41 ×10⁻⁶ cm/s.
`Nc1ccc(-c2cnc(NC(=O)CN(Cc3ccccc3)C(=O)c3ccncc3)s2)cn1` showed a logD in the data set “physchem” of 2.6. Moreover, the Papp A→B in data set [1] was 2.3 ×10⁻⁶ cm/s.
For `Nc1ccc(-c2cnc(NC(=O)CN(Cc3ccccc3)C(=O)c3ccncc3)s2)cc1` the same measures were 2.9 and 11.3 ×10⁻⁶ cm/s.
The molecule `Cc1nc(NC(=O)C(C)CC(F)(F)F)sc1-c1ccc(N)nc1` (stereo not given) gave a half-life in data set [2] of 1.7 h. Also, the logD in the data set “physchem” is 2.9. In data set [3], this molecule showed a clearance of 40 mL/min/kg. Further, the F in the data set with Rattus norvegicus worked out at 160%. Moreover, the Cmax in [5] worked out at 1.9 µM. Moreover, in data set [6], the AUC was 9.7 µM·h. The Papp A→B in [1] is 20 ×10⁻⁶ cm/s.
In data set [2], `COc1ccc(-c2c(C)nn3c(NCCN4CCOCC4)cc(C)nc23)cc1OC` showed a half-life of 2.8 h. Besides, the AUC in data set [7] turned out to be 3.6 µM·h; in [10] it was 307 µM·h; in data set [6] it was 10 µM·h; in data set [13], 45 µM·h. The logD in the data set “physchem” was 2.7. The Cmax was 1.9 µM in [8], 52 µM in [9], 2 µM in [5] and 15 µM in [11]. In data set [3], this molecule gave a clearance of 18 mL/min/kg. The bioavailability in data set [4] came to 91%. Further, in [1], the Papp A→B was determined as 11 ×10⁻⁶ cm/s.
Regarding `Cc1nc(NC(=O)[C@H](C)CC(F)(F)F)sc1-c1ccc(N)nc1`, the AUC came out at 2.7 µM·h in [7], 176 µM·h in data set [10] and 44 µM·h in data set [13]. This molecule also displayed a pH-dependent lipophilicity (logD) in the data set “physchem” of 3.2. Besides, the Cmax in data set [8] came to 1.8 µM; in [9], 55 µM; in [11], 18 µM. For the same molecule, in [12], the clearance amounted to 91 mL/min/kg. Besides, the Papp A→B in [1] was 44 ×10⁻⁶ cm/s.
